Measurements as given in patent publication US20080182277A1, “Assays and methods using biomarkers” (Genentech, Inc., priority 2005, published 2008).

Tests used:
DLD-1 cells = test: Immunoblot analysis of the Apo2L/TRAIL-induced caspase cascade, DLD-1; type: cell-based, human; conditions: siRNA 48 h, Apo2L/TRAIL 4 or 8 h
Method: (§1) FIG. 12 illustrates (A) Analysis of the caspase cascade induced by Apo2L/TRAIL. PSN-1 and DLD-1 cells were transfected with siRNAs against ppGalNAcT-14 or Fut-6, respectively, for 48 h. The cells were treated with Apo2L/TRAIL for 4 or 8 h, and cell lysates were analyzed by immunoblot with antibodies specific for caspase-8, Bid, caspase-9, caspase-3, or actin as a loading control. (B) PSN-1 cells were transfected with ppGalNAcT-14 siRNA as in A, treated with Apo2L/TRAIL for 4 h, and caspase-3/7 enzymatic activity in cell lysates was determined. (C) Analysis of the Apo2L/TRAIL DISC. PSN-1 cells were transfected with ppGalNAcT-14 siRNA as in A. FLAG-Apo2L/TRAIL ([…]) was added for 0-60 min, the cells were lysed, and subjected to an immunoprecipitation with an anti-FLAG antibody. DISC-associated FADD, caspase-8, DR4, and were detected by immunoblot. (D) PSN-1 cells were transfected, treated, and subjected to DISC immunoprecipitation as in C, and DISC-associated caspase-8 enzymatic activity was measured as previously described (Sharp et al., J. Biol. Chem., 280:19401 (2005).
(§2) siRNAs were purchased as double stranded RNA oligonucleotides and transfected into the respective cell lines at a final concentration of 25 nM for each siRNA. siRNA duplexes against a non-targeting sequence (Dharmacon) was used as a control. […]

Hs294T melanoma cells = test: siRNA knockdown followed by cell viability assay, Hs294T; type: cell-based, human; conditions: siRNA 25 nM 48 h, then Apo2L/TRAIL 24 h
Method: (§3) FIG. 11 illustrates modulation of particular O-glycosylation enzymes alters sensitivity to Apo2L/TRAIL. (A) Colo205 cells were preincubated with the pan O-glycosylation enzyme inhibitor benzyl-GalNAc (bGalNAc), treated with Apo2L/TRAIL for 24 h, and cell viability was determined (DMSO=vehicle control). (B) PSN-1 (pancreatic carcinoma) and Hs294T (melanoma) cells were transfected with caspase-8 or ppGalNAcT-14 siRNAs for 48 h, incubated with Apo2L/TRAIL for another 24 h and cell viability was determined. siRNA duplexes against a non-targeting sequence (Dharmacon) were used as a control (NTC). (C) DLD-1 colorectal carcinoma cells were transfected with ppGalNAcT-3 or Fut-6 by siRNAs and tested as in B. (D) HEK293 cells were co-transfected with plasmids encoding the indicated genes in combination with ppGalNAcT-14 or vector control. Apoptosis was measured at 24 h by Annexin V staining (left panel). H1569 melanoma cells were transduced with retrovirus directing ppGalNAcT-14 expression or control retrovirus; resulting cell line pools were treated with Apo2L/TRAIL for 24 h and cell viability was determined (right panel). Western blot analysis using anti-FLAG antibodies was used to verify expression of epitope-tagged ppGalNAcT-14.
(§4) FIG. 14 illustrates (A) Reduction in mRNA expression of ppGalNAcT-14 or ppGalNAcT-3 in PSN-1 or DLD-1 cells after 48 h siRNA knockdown by Taqman analysis. […]

[1] = tested on: PSN-1 pancreatic carcinoma cells; test: siRNA knockdown followed by cell viability assay, PSN-1; type: cell-based, human; conditions: siRNA 25 nM 48 h, then Apo2L/TRAIL 24 h
Method: as §3, §4

PSN-1 cells = test: Immunoblot analysis of the Apo2L/TRAIL-induced caspase cascade, PSN-1; type: cell-based, human; conditions: siRNA 48 h, Apo2L/TRAIL 4 or 8 h
Method: as §1, §2

Colo205 cells = test: Inhibition of O-glycosylation with benzyl-GalNAc, then Apo2L/TRAIL viability assay; type: cell-based, human; conditions: preincubation with Benzyl-a-GalNAc 2 mM or 4 mM, then Apo2L/TRAIL 24 h
Method: as §3
Colo205 cells were grown in the presence of Benzyl-a-GalNAc (2 mM or 4 mM) for 72 hours. […]

DLD-1 tumor xenografts = test: Tumor xenograft study, DLD-1; type: in vivo, mice; conditions: Fut-6-positive DLD-1; 60 mg/kg/day i.p. on days 0-4
Method: (§5) FIG. 10A-D illustrates differential expression of specific O-glycosylation enzymes in Apo2L/TRAIL-sensitive and -resistant cancer cell lines: (A) Cell viability was measured after incubation with varying doses of Apo2L/TRAIL. IC50 for each cell line was computed as the concentration of Apo2L/TRAIL that gives 50% loss of viability. Each cell viability experiment was repeated at least three times in presence of low (0.5%) and high (10%) fetal bovine serum. Black, grey, or open symbols depict cell lines that are highly sensitive, moderately sensitive, or resistant to Apo2L/TRAIL, respectively. (B) ppGalNAcT-14 mRNA expression levels (probe set 219271 at) in pancreatic and malignant melanoma cell lines. Cell lines are arranged by tissue type and sensitivity to Apo2L/TRAIL. […] Athymic nude mice carrying GalNAcT-3/Fut-6-positive (left panel) or GalNAcT-3/Fut-6-negative (right panel) tumors received vehicle or Apo2L/TRAIL (60 mg/kg/day i.p. on days 0-4) and tumor volume was monitored (mean ±SE, N=10 mice/group).
(§6) Monosaccharide composition of CHO-cell-derived DR5 was obtained after hydrolysis with 4 N TFA. […] Tumor measurements were collected by a digital caliper and tumor volumes calculated using the formula […] (A=length) (B=width)^2. […]

RKO tumor xenografts = test: Tumor xenograft study, RKO; type: in vivo, mice; conditions: Fut-6-negative RKO; 60 mg/kg/day i.p. on days 0-4
Method: as §5, §6

[2] = tested on: panel of human cancer cell lines (23 pancreatic adenocarcinomas, 18 malignant melanomas, 36 colorectal adenocarcinomas); test: Cell viability assay to determine IC50 for Apo2L/TRAIL in a cancer cell line panel; type: cell-based
Method: FIG. 10A-D illustrates differential expression of specific O-glycosylation enzymes in Apo2L/TRAIL-sensitive and -resistant cancer cell lines: (A) Cell viability was measured after incubation with varying doses of Apo2L/TRAIL. IC50 for each cell line was computed as the concentration of Apo2L/TRAIL that gives 50% loss of viability. Each cell viability experiment was repeated at least three times in presence of low (0.5%) and high (10%) fetal bovine serum. Black, grey, or open symbols depict cell lines that are highly sensitive, moderately sensitive, or resistant to Apo2L/TRAIL, respectively. (B) ppGalNAcT-14 mRNA expression levels (probe set 219271 at) in pancreatic and malignant melanoma cell lines. Cell lines are arranged by tissue type and sensitivity to Apo2L/TRAIL. Black, grey, or open bars depict cell lines as in A. (C) mRNA expression levels of Fut-6 (top panel, probe set 211885_x_at) and ppGalNAcT-3 (bottom panel, probe set 203397_s_at) in colorectal cancer cell lines. […] Athymic nude mice carrying GalNAcT-3/Fut-6-positive (left panel) or GalNAcT-3/Fut-6-negative (right panel) tumors received vehicle or Apo2L/TRAIL (60 mg/kg/day i.p. on days 0-4) and tumor volume was monitored (mean ±SE, N=10 mice/group). […]

Colo205 tumor xenografts = test: Tumor xenograft study, Colo205; type: in vivo, mice; conditions: Fut-6-positive Colo205; 60 mg/kg/day i.p. on days 0-4
Method: as §5, §6

Colo320 tumor xenografts = test: Tumor xenograft study, Colo320; type: in vivo, mice; conditions: Fut-6-negative Colo320; 60 mg/kg/day i.p. on days 0-4
Method: as §5, §6

Compound | Apo2L/TRAIL-induced caspase processing (caspase-8, Bid, caspase-9, caspase-3) (DLD-1 cells) | effect on sensitivity to Apo2L/TRAIL (cell viability) (Hs294T melanoma cells) | effect on sensitivity to Apo2L/TRAIL (cell viability) [1] | Apo2L/TRAIL-induced caspase processing (caspase-8, Bid, caspase-9, caspase-3) (PSN-1 cells) | effect on sensitivity to Apo2L/TRAIL (cell viability) (Colo205 cells) | effect on growth of established tumor xenografts (DLD-1 tumor xenografts) | effect on growth of established tumor xenografts (RKO tumor xenografts) | cell lines classified as highly or moderately sensitive to Apo2L/TRAIL ([2]; 29/77 cell lines) | Apo2L/TRAIL concentration required for achieving 50% cell death, mean ([2]; mean over the 29 highly or moderately sensitive cell lines) | effect on growth of established tumor xenografts (Colo205 tumor xenografts) | effect on growth of established tumor xenografts (Colo320 tumor xenografts)
5′ GGACAAAGTTTACCAAATG-dTdT 3′ [caspase-8 siRNA, reference compound] | prevented these events | essentially complete protection | essentially complete protection | prevented these events |  |  |  |  |  |  | 
CC(=O)N[C@H]1[C@@H](OCc2ccccc2)O[C@H](CO)[C@H](O)[C@@H]1O [benzyl-GalNAc, Benzyl-a-GalNAc] |  |  |  |  | markedly reduced sensitivity to Apo2L/TRAIL |  |  |  |  |  | 
Apo2L/TRAIL: nontagged soluble recombinant human Apo2L/TRAIL, prepared as described in Lawrence et al. | essentially complete processing of caspase-8 |  |  | essentially complete processing of caspase-8 |  | tumor regression followed by a greatly delayed tumor progression | did not respond | 38% | 250 ng/mL | tumor regression followed by a greatly delayed tumor progression | did not respond
